Measured values published in US10195196B2, “1,4-disubstituted pyridazine analogs there of and methods for treating SMN-deficiency-related conditions” (NOVARTIS AG, priority 2012, dated 2019).

Tested on: SMN protein
Assay: cellular SMN ELISA (SMN protein elevation)
Format: cell-based
Settings: myoblast cell line from SMNdelta7 mouse model, 24 hours treatment; for SMN activity Fold: fold activation over DMSO control
Method: A cellular SMN ELISA was used to measure the effects of low molecular weight compounds on SMN protein elevation. Cells from a myoblast cell line derived from the SMNdelta7 mouse model (kind gift from Steve Burden, NYU) were seeded into a 384-well plate at a density of 3000 cells/well and treated with compounds for 24 hours. ELISA capture plates were prepared by coating 384-well plates (Immulon 4HBX) with 0.5 ug/mL of anti-SMN mAb (BD Science, Catalog number 610647) at 4° C. overnight. The plates were washed 5 times with 110 uL of PBS-Tween (0.05% Tween-20, PBST), blocked with 100 uL of 1% BSA in PBST for 2 hours and washed (5 times) with 100 uL of PBST. After 24 hours of compound treatment cells were lysed in a modified RIPA-buffer, on ice for 1 hour. 20 uL of lysate and 20 uL of 1% BSA were then added to the ELISA capture plates and incubated at 4° C. overnight. Plates were washed (5 times) with PBST and then incubated with 1:100 dilution of primary rabbit anti-SMN polyclonal antibody (Santa cruz, Catalog number SC-15320) at room temperature for 1 hour and subsequently washed (5 times) with 110 uL of PBST. This was followed by addition of 1:100 Goat anti-Rabbit IgG-HRP linked (Cell Signaling, Catalog number 7074) secondary antibody for 1 hour. Plates were then washed with PBST and incubated with 40 uL TMB substrate (Cell Signaling, Catalog number 7004L) at room temperature for 1-10 minutes with shaking. The reaction was stopped by addition of 40 uL of stop solution (Cell signaling, Catalog number 7002L) and absorption was measured at 450 nm. Data was reported as fold activation over DMSO control, and EC50.
ELISA assay condition 1: compound concentration range 20 nM-10 uM; ELISA assay condition 2: compound concentration 100 pM-10 uM.

[1] = ELISA condition 2: compound concentration 100 pM-10 uM
[2] = ELISA condition 1: compound concentration range 20 nM-10 uM

SMILES	EC50 [1]	EC50 [2]	SMN activity Fold [1]	SMN activity Fold [2]
OCCN1CCN(c2ccc(-c3ccc(-n4cccn4)cc3O)nn2)CC1 [Example 18-7, 2-{6-[4-(2-hydroxy-ethyl)-piperazin-1-yl]-pyridazin-3-yl}-5-pyrazol-1-yl-phenol]	2660 nM		2.67 Fold	
Oc1cc(-n2cccn2)ccc1-c1ccc(N2CC3CNC(C3)C2)nn1 (stereo not drawn) [Example 18-8, 2-[6-(3,6-diaza-bicyclo[3.2.1]oct-3-yl)-pyridazin-3-yl]-5-pyrazol-1-yl-phenol]	983 nM		2.32 Fold	
Oc1cc(-n2cccn2)ccc1-c1ccc(N2CCC3(CC2)CNC3)nn1 [Example 18-9, 2-[6-(2,7-diaza-spiro[3.5]non-7-yl)-pyridazin-3-yl]-5-pyrazol-1-yl-phenol]		1180 nM		1.93 Fold
OCC1CN(c2ccc(-c3ccc(-n4cccn4)cc3O)nn2)CCN1 (stereo not drawn) [Example 18-10, 2-[6-(3-hydroxy-methyl-piperazin-1-yl)-pyridazin-3-yl]-5-pyrazol-1-yl-phenol]	386 nM		2.55 Fold	
Oc1cc(-n2cccn2)ccc1-c1ccc(N2CCC3(CCCN3)C2)nn1 (stereo not drawn) [Example 18-11, 2-[6-(1,7-diaza-spiro[4.4]non-7-yl)-pyridazin-3-yl]-5-pyrazol-1-yl-phenol]	320 nM		2.53 Fold	
CC1(N)CCN(c2ccc(-c3ccc(-n4cccn4)cc3O)nn2)CC1 [Example 18-12, 2-[6-(4-amino-4-methyl-piperidin-1-yl)-pyridazin-3-yl]-5-pyrazol-1-yl-phenol]	792 nM		2.62 Fold	
CN(C)C1CCCN(c2ccc(-c3ccc(-n4cccn4)cc3O)nn2)C1 (stereo not drawn) [Example 18-13, 2-[6-(3-dimethyl-amino-piperidin-1-yl)-pyridazin-3-yl]-5-pyrazol-1-yl-phenol]	1240 nM		2.28 Fold	
CN1C(C)(C)CC(Nc2ccc(-c3ccc(-n4cccn4)cc3O)nn2)CC1(C)C [Example 18-14, 2-[6-(1,2,2,6,6-pentamethyl-piperidin-4-ylamino)-pyridazin-3-yl]-5-pyrazol-1-yl-phenol]		17 nM		2.62 Fold
CC1(C)CN(c2ccc(-c3ccc(-n4cccn4)cc3O)nn2)CCN1 [Example 18-15, 2-[6-(3,3-dimethyl-piperazin-1-yl)-pyridazin-3-yl]-5-pyrazol-1-yl-phenol]	714 nM		2.30 Fold	
OCCN1CCC2(CCN(c3ccc(-c4ccc(-n5cccn5)cc4O)nn3)C2)C1 (stereo not drawn) [Example 18-16, 2-(6-(7-(2-hydroxyethyl)-2,7-diazaspiro[4.4]-nonan-2-yl)pyridazin-3-yl)-5-(1H-pyrazol-1-yl)phenol]	227 nM		3.25 Fold	
Oc1cc(-n2cccn2)ccc1-c1ccc(N2C[C@H]3CNC[C@H]3C2)nn1 [Example 18-17, 2-(6-((3aR,6aS)-hexahydropyrrolo[3,4-c]pyrrol-2(1H)-yl)pyridazin-3-yl)-5-(1H-pyrazol-1-yl)phenol]	158 nM		2.85 Fold	
Oc1ccc2cc(-c3ccc(N4CCNCC4)nn3)c(O)cc2c1 [Example 18-18, 3-(6-(piperazin-1-yl)pyridazin-3-yl)naphthalene-2,7-diol]	56 nM		2.57 Fold	
Oc1cc(-n2cccn2)ccc1-c1ccc(C2=CCNCC2)nn1 [Example 19-1, 5-pyrazol-1-yl-2-[6-(1,2,3,6-tetrahydro-pyridin-4-yl)-pyridazin-3-yl]-phenol]	477 nM		2.77 Fold	
Oc1cc2ccccc2cc1-c1ccc(C2=CCNCC2)nn1 [Example 19-3, 3-(6-(1,2,3,6-tetra-hydropyridin-4-yl)pyridazin-3-yl)naphthalen-2-ol]	155 nM		2.19 Fold	
Oc1ccc2cc(-c3ccc(C4=CCNCC4)nn3)c(O)cc2c1 [Example 19-4, 3-(6-(1,2,3,6-tetrahydropyridin-4-yl)pyridazin-3-yl)naphthalene-2,7-diol]	25 nM		2.47 Fold	
CN1CC=C(c2ccc(-c3cc4ccc(O)cc4cc3O)nn2)CC1 [Example 19-6, 3-(6-(1-methyl-1,2,3,6-tetrahydropyridin-4-yl)pyridazin-3-yl)naphthalene-2,7-diol]	40 nM		2.33 Fold	
CN(c1ccc(-c2cc3ccc(O)cc3cc2O)nn1)C1CC(C)(C)NC(C)(C)C1 [Example 20-2, 3-(6-(methyl(2,2,6,6-tetramethylpiperidin-4-yl)amino)pyridazin-3-yl)naphthalene-2,7-diol]	4 nM		2.79 Fold	
CN(c1ccc(-c2cc3ccc(OCCCN)cc3cc2O)nn1)C1CC(C)(C)NC(C)(C)C1 [Example 20-5, 7-(3-amino-propoxy)-3-{6-[methyl-(2,2,6,6-tetramethyl-piperidin-4-yl)-amino]-pyridazin-3-yl}-naphthalen-2-ol]	6 nM		2.66 Fold	
CC(=O)NCCCOc1ccc2cc(-c3ccc(N(C)C4CC(C)(C)NC(C)(C)C4)nn3)c(O)cc2c1 [Example 20-6, N-[3-(7-hydroxy-6-{6-[methyl-(2,2,6,6-tetramethyl-piperidin-4-yl)-amino]-pyridazin-3-yl}-naphthalen-2-yloxy)-propyl]-acetamide]	50 nM		2.18 Fold	
CN(c1ccc(-c2cc3ccc(OCCCO)cc3cc2O)nn1)C1CC(C)(C)NC(C)(C)C1 [Example 20-7, 7-(3-hydroxypropoxy)-3-(6-(methyl(2,2,6,6-tetramethylpiperidin-4-yl)amino)pyridazin-3-yl)naphthalen-2-ol]	7 nM		2.75 Fold	
COCCCOc1ccc2cc(-c3ccc(N(C)C4CC(C)(C)NC(C)(C)C4)nn3)c(O)cc2c1 [Example 20-8, 7-(3-methoxypropoxy)-3-(6-(methyl(2,2,6,6-tetramethylpiperidin-4-yl)amino)pyridazin-3-yl)naphthalen-2-ol]	30 nM		2.61 Fold	

The next lines start with results.

EC50 [1]	EC50 [2]	SMILES	SMN activity Fold [1]	SMN activity Fold [2]
402 nM		Oc1cc(-n2cccn2)ccc1-c1ccc(C2CCNCC2)nn1 [Example 19-2, 2-(6-piperidin-4-yl-pyridazin-3-yl)-5-pyrazol-1-yl-phenol]	2.73 Fold	
402 nM		CC1(C)C=C(c2ccc(-c3cc4ccc(O)cc4cc3O)nn2)CC(C)(C)N1 [Example 19-5, 3-(6-(2,2,6,6-tetramethyl-1,2,3,6-tetrahydropyridin-4-yl)pyridazin-3-yl)naphthalene-2,7-diol]	2.58 Fold	
37 nM		Oc1ccc2cc(-c3ccc(C4CCNCC4)nn3)c(O)cc2c1 [Example 19-7, 3-(6-(piperidin-4-yl)pyridazin-3-yl)naphthalene-2,7-diol]	3.07 Fold	
18 nM		CC1(C)CC(Oc2ccc(-c3cc4ccc(O)cc4cc3O)nn2)CC(C)(C)N1 [Example 20-1, 3-(6-((2,2,6,6-tetramethylpiperidin-4-yl)oxy)pyridazin-3-yl)naphthalene-2,7-diol]	2.75 Fold	
8 nM		CC1(C)CC(Nc2ccc(-c3cc4ccc(O)cc4cc3O)nn2)CC(C)(C)N1 [Example 20-3, 3-(6-((2,2,6,6-tetramethylpiperidin-4-yl)amino)pyridazin-3-yl)naphthalene-2,7-diol]	3.42 Fold	
	310 nM	CN(c1ccc(-c2cc3ccc(OCCCNC(=O)OC(C)(C)C)cc3cc2O)nn1)C1CC(C)(C)NC(C)(C)C1 [Example 20-4, [3-(7-hydroxy-6-{6-[methyl-(2,2,6,6-tetramethyl-piperidin-4-yl)-amino]-pyridazin-3-yl}-naphthalen-2-yloxy)-propyl]-carbamic acid tert-butyl ester]		2.32 Fold
176 nM		CC1(C)CC(Oc2ccc(-c3cc4ccc(OCCN5CCOCC5)cc4cc3O)nn2)CC(C)(C)N1 [Example 20-9, 7-(2-morpholinoethoxy)-3-(6-((2,2,6,6-tetramethylpiperidin-4-yl)oxy)pyridazin-3-yl)naphthalen-2-ol]	2.44 Fold	
959 nM		Oc1cc2ccccc2cc1-c1ccc(CC2CCNCC2)nn1 [Example 21-1, 3-(6-(piperidin-4-ylmethyl)pyridazin-3-yl)naphthalen-2-ol]	2.35 Fold	
206 nM		CC1(C)CC(Cc2ccc(-c3ccc(-n4cccn4)cc3O)nn2)CC(C)(C)N1 [Example 21-2, 5-(1H-pyrazol-1-yl)-2-(6-((2,2,6,6-tetramethylpiperidin-4-yl)methyl)pyridazin-3-yl)phenol]	2.69 Fold	
